Consider two compounds from patent US20080312305A1, “Imidazoles as Gaba- B Receptor Modulators” (priority 2005, published 2008).

In this assay the target is T1, GABAB receptor (GABABR1a/GABABR2) (Homo sapiens, UniProt O75899+Q9UBS5).
T1 construct: expressed in transfected cells; membranes prepared from the cells
As to the kind of experiment: [35S]-GTPγS binding assay, potency of positive allosteric modulator on GABA EC50. The format is biochemical. The settings on record: potency of the positive allosteric modulator (log EC50 for GABA plotted against log modulator concentration). The text has this:
GABABR1a and GABABR2 were cloned from human brain cDNA and subcloned into pCI-Neo (Promega) and pALTER-1 (Promega), respectively. A GABABR1a-Gαqi5 fusion protein expression vector was constructed using the pCI-Neo-GABABR1a cDNA plasmid and pLEC1-Gαqi5 (Molecular Devices, Calif.). In order to make the Gαqi5 pertussis toxin insensitive, Cys356 was mutated to Gly using standard PCR methodology with the primers 5′-[…]-3′ (forward) and 5′-GCGGCCG […]-3′ (reverse). The Gαqi5mut cDNA was ligated into the BamHI and NotI sites of pcDNA3.0 (Invitrogen). The GABABR1a coding sequence was amplified by PCR from pCI-Neo-GABABR1a using the primers, 5′-[…]-3′ (forward) and 5′-[…]-3′ (reverse) and subcloned into the BamHI site of pcDNA3.0-Gαqi5mut.
For generation of stable cell lines, CHO-K1 cells were grown in Nut mix F-12 (Ham) media supplemented with 10% FBS, 100 U/ml Penicillin and 100 μg/ml Streptomycin at 37° C. in a humidified CO2-incubator. […]
[^35S]-GTPγS binding assays were performed at 30° C. for 45 min in membrane buffer (100 mM NaCl, […], 1 mM EDTA, 50 mM HEPES, pH 7.4) containing 0.025 μg/μl of membrane protein (prepared from the cell lines described above) with 0.01% bovine serum albumin (fatty acid free), 10 μM GDP, 100 μM DTT and 0.53 nM [^35S]-GTPγS (Amersham-Pharmacia Biotech) in a final volume of 200 μl. Non-specific binding was determined in the presence of 20 μM GTPγS. […]
(In general: Binding of GTPγS marks nucleotide exchange on a G protein.)

pEC50: −log10 of the molar value.

T1 sequence (Q9UBS5 15-961 limits assumed): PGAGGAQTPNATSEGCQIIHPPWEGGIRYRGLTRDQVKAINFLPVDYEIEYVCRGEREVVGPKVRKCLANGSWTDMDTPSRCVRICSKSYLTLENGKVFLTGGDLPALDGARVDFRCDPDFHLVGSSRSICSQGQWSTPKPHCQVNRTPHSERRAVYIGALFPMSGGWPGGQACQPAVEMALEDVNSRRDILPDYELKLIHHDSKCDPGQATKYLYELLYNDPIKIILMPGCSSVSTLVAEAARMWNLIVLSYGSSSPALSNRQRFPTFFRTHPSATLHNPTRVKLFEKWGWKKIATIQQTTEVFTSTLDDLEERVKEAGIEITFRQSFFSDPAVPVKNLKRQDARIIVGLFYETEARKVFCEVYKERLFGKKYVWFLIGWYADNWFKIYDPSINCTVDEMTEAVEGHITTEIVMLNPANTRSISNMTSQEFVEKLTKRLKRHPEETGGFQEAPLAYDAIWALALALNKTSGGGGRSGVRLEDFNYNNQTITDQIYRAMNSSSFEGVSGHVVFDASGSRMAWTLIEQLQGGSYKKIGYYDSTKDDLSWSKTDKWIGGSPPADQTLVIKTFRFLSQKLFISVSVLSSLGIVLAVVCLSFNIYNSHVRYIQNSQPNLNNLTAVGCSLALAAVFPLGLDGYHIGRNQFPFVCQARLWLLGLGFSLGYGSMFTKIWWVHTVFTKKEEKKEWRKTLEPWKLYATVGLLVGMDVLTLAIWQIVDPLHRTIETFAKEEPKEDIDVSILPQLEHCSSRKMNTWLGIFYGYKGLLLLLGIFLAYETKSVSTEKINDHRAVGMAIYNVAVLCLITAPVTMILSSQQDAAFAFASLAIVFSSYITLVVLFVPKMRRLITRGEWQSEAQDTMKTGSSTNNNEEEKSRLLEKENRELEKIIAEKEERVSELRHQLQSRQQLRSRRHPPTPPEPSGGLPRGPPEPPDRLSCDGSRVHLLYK
T1 sequence (O75899 42-941): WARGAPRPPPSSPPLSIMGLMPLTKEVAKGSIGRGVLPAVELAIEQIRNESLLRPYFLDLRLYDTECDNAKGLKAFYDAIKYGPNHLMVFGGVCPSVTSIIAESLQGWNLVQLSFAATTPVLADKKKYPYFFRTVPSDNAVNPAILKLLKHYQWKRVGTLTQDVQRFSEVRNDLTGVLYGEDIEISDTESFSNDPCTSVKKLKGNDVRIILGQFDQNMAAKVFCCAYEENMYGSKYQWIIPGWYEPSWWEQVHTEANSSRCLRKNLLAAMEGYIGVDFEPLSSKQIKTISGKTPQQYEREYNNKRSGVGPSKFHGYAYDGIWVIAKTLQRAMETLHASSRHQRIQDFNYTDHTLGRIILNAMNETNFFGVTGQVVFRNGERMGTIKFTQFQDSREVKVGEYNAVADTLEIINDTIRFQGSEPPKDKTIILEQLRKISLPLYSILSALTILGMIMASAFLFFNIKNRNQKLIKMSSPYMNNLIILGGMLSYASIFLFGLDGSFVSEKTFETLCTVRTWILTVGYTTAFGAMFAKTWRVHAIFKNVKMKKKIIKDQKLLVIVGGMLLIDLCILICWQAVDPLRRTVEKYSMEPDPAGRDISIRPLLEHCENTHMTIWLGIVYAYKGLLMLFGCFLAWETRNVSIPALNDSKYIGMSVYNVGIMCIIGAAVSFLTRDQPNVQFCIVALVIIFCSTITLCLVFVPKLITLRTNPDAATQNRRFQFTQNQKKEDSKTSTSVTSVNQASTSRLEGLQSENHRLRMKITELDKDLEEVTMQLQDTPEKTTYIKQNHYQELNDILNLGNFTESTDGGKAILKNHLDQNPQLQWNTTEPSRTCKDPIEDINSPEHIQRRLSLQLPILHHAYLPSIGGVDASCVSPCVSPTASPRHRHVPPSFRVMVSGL

As for `CCCc1nc(NC(=O)C2COc3ccccc3O2)c(C(=O)OCC)n1CC(C)C` (centres unmarked) [Example 25, Ethyl 4-[(2,3-dihydro-1,4-benzodioxin-2-ylcarbonyl)amino]-1-isobutyl-2-propyl-1H-imidazole-5-carboxylate], the pEC50 (commonly the EC50 on a negative log10 scale, so that one unit is a factor of ten) was 5.26.

In turn, `CCCc1nc(NC(=O)C2COc3ccccc3O2)c(C(=O)OC(C)(C)C)n1CC(C)C` (centres unmarked) [Example 21, Tert-butyl 4-[(2,3-dihydro-1,4-benzodioxin-2-ylcarbonyl)amino]-1-isobutyl-2-propyl-1H-imidazole-5-carboxylate] showed a pEC50 of 5.43.
